In patent EP0291751A2, “Pharmaceutical mixture preparation” (Wilhelm, Gerhard, Dr., priority 1987, dated 1988):

Tested on: Symptome des Heuschnupfens
Conditions: alone or together, without Hydroxiphenylalkanolamin

Q: Which “die Symptome des Heuschnupfens lindernde Wirkung” value does the source give for `Cc1ncc(C[n+]2csc(CCO)c2C)c(N)n1` [Vitamin B₁] here?
A: Its value is “weder alleine noch gemeinsam miteinander”.
